The term EC50 denotes the concentration that produces a half-maximal response.

Test [1] concerns the target T1, LXRβ (Homo sapiens, UniProt P55055).
T1 construct: gene NR1H2
T1 sequence (P55055 1-460): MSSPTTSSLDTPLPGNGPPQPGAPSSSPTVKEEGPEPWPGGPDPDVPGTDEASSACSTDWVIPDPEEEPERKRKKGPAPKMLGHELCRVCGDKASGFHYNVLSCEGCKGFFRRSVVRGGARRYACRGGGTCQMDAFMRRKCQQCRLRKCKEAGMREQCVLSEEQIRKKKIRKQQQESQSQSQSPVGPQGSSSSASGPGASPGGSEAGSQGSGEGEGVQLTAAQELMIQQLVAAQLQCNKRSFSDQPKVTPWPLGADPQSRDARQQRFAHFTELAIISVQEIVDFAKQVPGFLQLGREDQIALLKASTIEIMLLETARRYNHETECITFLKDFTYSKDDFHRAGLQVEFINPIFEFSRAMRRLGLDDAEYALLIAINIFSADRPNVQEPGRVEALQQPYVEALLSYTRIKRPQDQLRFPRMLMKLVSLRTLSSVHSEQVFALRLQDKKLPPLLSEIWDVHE
Kind of test: TR-FRET coactivator assay. The format is binding.

Test [2] concerns the target T1, LXRβ. Kind of test: TR-FRET coactivator assay (positive control, parent agonist). The format is binding. A general note: Time-resolved FRET reads energy transfer from a long-lived donor to a nearby acceptor.

In the case of `Cc1ncsc1-c1ccc(CNC(=O)[C@@H]2C[C@@H](O)CN2C(=O)[C@@H](NC(=O)COCCOCCOCCOCCOCCNC(=O)Cc2cccc(OCCCN(Cc3cccc(C(F)(F)F)c3Cl)CC(c3ccccc3)c3ccccc3)c2)C(C)(C)C)cc1` [compound 3, GW3965-PEG5-VH032], at LXRβ [1], a half-maximal effect (EC50) was put at 31 ± 4.4 nM. `O=C(O)Cc1cccc(OCCCN(Cc2cccc(C(F)(F)F)c2Cl)CC(c2ccccc2)c2ccccc2)c1` [GW3965]: on LXRβ [2], the concentration for a half-maximal effect (EC50) turned out to be 20 ± 7.2 nM.

Source of the values: PMC8187946, “Development of Agonist-Based PROTACs Targeting Liver X Receptor” (Frontiers in Chemistry, 2021).
